# Measured values as given in publication PMC6013238, “Development of novel NEMO-binding domain mimetics for inhibiting IKK/NF-κB activation” (PLoS Biology, 2018).
# Where “and” joins values, the source holds several entries; their conditions need not be identical. Equal values may be shown once. Read-outs that look alike come from different tables or passages of the source.
# How the values were obtained:
# [1] = system: NEMO; conditions: ref [21], [32]–[34]; read-out: IC50, affinity to NEMO; cited from earlier work
# [2] = system: NF-κB activation; experiment: Dual-luciferase (NF-κB firefly/SV40-Renilla) reporter assay, TNF-α-stimulated HEK293 cells; type: cell-based, human; conditions: for Relative luciferase activity (NF-κB/Renilla): Fig 4B, CTRL about 1; for NF-κB luciferase activity, dose-dependent curve: Fig S1A, CTRL about 100; for IC50: Homo sapiens, HEK293, luciferase assays at 0, 25, 50, 100, 150 μM, GraphPad, read-out: IC50 of inhibition of TNF-α-mediated NF-κB activation
# [3] = system: IL-6 production; experiment: Mouse IL-6 ELISA of supernatant of LPS-stimulated Raw 264.7 cells; type: cell-based; conditions: LPS 1 μg/ml 24 h; for mIL-6 in supernatant (ELISA): Fig 4D; for Effect on LPS-induced IL-6 production (ELISA): 25 and 50 μM
# Protocol: Fig 4 Modified lead NBD mimetics inhibit TNF-α- and LPS-induced NF-κB activation by disrupting the association between NEMO and IKKβ. (A) Structures of top NBD mimetics. (B) Measurement of NF-κB activation in response to TNF-α by using Dual-luciferase reporter assays. HEK293 cells cotransfected with NF-κB luciferase reporter and SV40-Renilla plasmids were pretreated with DMSO or listed small molecules at 0, 25, 50, 100, and 150 μM for 30 min, followed by the induction of TNF-α for 3 h. Data shown are representative of 2–3 independent experiments. […] Raw 264.7 cells were pretreated with indicated drugs for 30 min and then stimulated with 1 μg/ml of LPS for 2 h. Cells were then harvested for RNA extraction and qRT-PCR analysis. Drug concentrations used are as follows: IKKi VII (2 μM), 8K-NBD peptide (200 μM), SR12343 (50 μM), SR12460 (50 μM), SR12454 (50 μM), and SR11481 (50 μM). Data are representative of 2 independent experiments. […] Raw 264.7 cells pretreated with DMSO or drugs at indicated concentrations were exposed to 1 μg/ml of LPS for 24 h, and supernatant was collected for ELISA analysis of mouse IL-6. *P < 0.05; **P < 0.01. Underlying data can be found in S1 Data. HEK293, human embryonic kidney 293 cells; IKK, IκB kinase; IL-6, interleukin 6; LPS, lipopolysaccharide; NBD, NEMO-binding domain; n.d., nondetectable; NEMO, NF-κB essential modulator; NF-κB, nuclear factor κB; qRT-PCR, […] real-time polymerase chain reaction; TNF-α; tumor necrosis factor α. TEXT PRINTED IN THE PICTURE: (D) ikki VII: mIL-6 (ng/ml): n.d. | (D) SR12460: mIL-6 (ng/ml): n.d. (50μM) | (D) SR12454: mIL-6 (ng/ml): n.d. (50μM) DOUBTS OF THE COPYIST ABOUT THIS PICTURE: Panel D: the only printed results are the three "n.d." labels. They stand in place of bars and are assigned to ikki VII, SR12460 50μM and SR12454 50μM by their position on the axis. All other results are shown only as bars, with no printed numbers.
# To confirm the qRT-PCR results, the levels of IL-6 production in Raw 264.7 cells activated by LPS were analyzed by ELISA.
# Raw 264.7 cells were grown in 96-well plates and pretreated with vehicle, IKKi VII (2 μM), and small molecules (at indicated concentration) for 1 h, followed by the stimulation with 1 μg/ml of LPS. Supernatant was collected 24 h later for ELISA analysis. IL-6 concentration was measured using a mouse IL-6 ELISA kit (BD) according to the manufacturer’s instructions.
# [4] = Plasma and tissue concentrations 2 h after a single i.p. injection; type: in vivo, mouse; conditions: male, C57BL/6J, mouse, ip, 10 mg/kg, 2 h post single i.p. 10 mg/kg, single mice
# Protocol: To determine the stability of the NBD mimetics in vivo, their levels were measured in the plasma of mice 2 h post i.p. injection with 10 mg/kg of each compound. The concentration of SR12460 was very high in plasma (>6.5 μg/mL; 20 μM), while levels in brain, muscle, spleen, and liver were lower. SR12343 and SR12454 had lower plasma concentrations, with SR12343 showing a higher level in liver and SR12454 showing higher concentrations in muscle and spleen. The level of SR11481 was undetectable in plasma and tissues (Fig 6A).
# Fig 6 Newly identified NBD mimetics suppress LPS-induced acute inflammation in vivo. (A) The bioavailability property of SR12460, SR12343, SR12454, and SR11481. Concentrations of NBD mimetics were determined in plasma, brain, muscle, spleen, and liver 2 h post a single i.p. injection of 10 mg/kg of drugs; n = 3 per group. (B) Shown is the model to induce LPS-mediated acute inflammation and the treatment regimen with NBD mimetics. Mouse image via http://www.clker.com/clipart-mice-blank.html (copyright-free). (C) NBD mimetics suppressed LPS-induced acute inflammation in liver and lung by down-regulating NF-κB target gene expression. Vehicle, SR12343, SR12460, and 8K-NBD peptide were dosed at 10 mg/kg 30 min prior to the LPS treatment. Acute inflammation was induced by i.p. injection of 10 mg/kg LPS. Lung and liver were collected 2–4 h post injection, and mRNA was extracted for qRT-PCR analysis. (D, E) Western blot analysis was performed to probe for the expression of p-IκBα and COX-2 at protein level in liver and lung tissues. (F) Serum levels of IL-6 were determine by ELISA. n = 3–8 each group. *P < 0.05, **P < 0.01. Underlying data can be found in S1 Data. COX-2, cyclooxygenase 2; IL-6, interleukin 6; i.p., intraperitoneal; LPS, lipopolysaccharide; NBD, NEMO-binding domain; n.d., nondetectable; NEMO, NF-κB essential modulator; NF-κB, nuclear factor κB; qRT-PCR, quantitative real-time polymerase chain reaction. TEXT PRINTED IN THE PICTURE: (A) SR11481: Concentration (ng/ml): n.d. (plasma)
# The pharmacokinetic profile of the NBD mimetics was determined in male C57BL/6J mice (n = 3). The drugs were formulated in 10:10:80 of DMSO:Tween 80:water and were dosed by i.p. injection at a final dose of 10 mg/kg. Blood, brain, muscle, spleen, and liver were collected 2 h post treatment and were analyzed by mass spectrometry by following a protocol previously described.
# [5] = system: NF-κB target genes; experiment: qRT-PCR of NF-κB target genes in LPS-stimulated Raw 264.7 cells; type: cell-based, mouse; conditions: LPS 1 μg/ml 2 h; for COX2 mRNA expression (qRT-PCR) / IL6 mRNA expression (qRT-PCR) / IL-1b mRNA expression (qRT-PCR) / TNFa mRNA expression (qRT-PCR) / iNOS mRNA expression (qRT-PCR) / ikBa mRNA expression (qRT-PCR): Fig 4C, IKKi VII 2 μM, 8K-NBD 200 μM, SR compounds 50 μM, relative to no LPS; for Effect on transcription of NF-κB target genes (COX-2, IL-6, IL-1β, TNF-α, IκBα, iNOS): 50 μM
Molecule,IC50 [1],Relative luciferase activity (NF-κB/Renilla) ([2]; 25 μM),Relative luciferase activity (NF-κB/Renilla) ([2]; 50 μM),Relative luciferase activity (NF-κB/Renilla) ([2]; 100 μM),Relative luciferase activity (NF-κB/Renilla) ([2]; 150 μM),"NF-κB luciferase activity, dose-dependent curve ([2]; 25 μM)","NF-κB luciferase activity, dose-dependent curve ([2]; 50 μM)","NF-κB luciferase activity, dose-dependent curve ([2]; 100 μM)","NF-κB luciferase activity, dose-dependent curve ([2]; 150 μM)",IC50 [2],mIL-6 in supernatant (ELISA) ([3]; 25 μM),mIL-6 in supernatant (ELISA) ([3]; 50 μM),Effect on LPS-induced IL-6 production (ELISA) [3],COX2 mRNA expression (qRT-PCR) [5],IL6 mRNA expression (qRT-PCR) [5],IL-1b mRNA expression (qRT-PCR) [5],TNFa mRNA expression (qRT-PCR) [5],iNOS mRNA expression (qRT-PCR) [5],ikBa mRNA expression (qRT-PCR) [5],"Effect on transcription of NF-κB target genes (COX-2, IL-6, IL-1β, TNF-α, IκBα, iNOS) [5]",other results
"11-mer NBD peptide: traditional 11-mer NBD peptide of IKKβ (735–745) (TALDWSWLQTE; NEMO-binding domain peptide; UniProt O14920 735-745, looked up, fragment)",~100 µM,,,,,,,,,,,,,,,,,,,,
O=C(COC(=O)Cc1cc(F)cc(F)c1)Nc1ccc(Cl)cn1 [SR11481],,0.669 and 0.7893 and 1.108,0.3445 and 0.3583 and 0.2895,0.1303 and 0.1653 and 0.168,0.2602 and 0.3121 and 0.2334,67 and 79 and 111,34 and 36 and 29,13 and 16 and 17,26 and 31 and 23,45 µM,1.0708 ng/mL and 1.7487 ng/mL and 1.6903 ng/mL,2.4581 ng/mL and 2.0675 ng/mL and 2.2021 ng/mL,significant reduction in the accumulation of IL-6 protein,591.346 and 521.171 and 682.383,630.626 and 570.463 and 862.622,411.733 and 420.368 and 564.689,96.3315 and 86.7639 and 154.495,25.4503 and 21.5558 and 14.0886,12.89 and 13.062 and 21.9932,did not induce a detectable suppression,"concentration at 2 h ([4]; plasma, read-out: Concentration in plasma): 0 ng/mL"
O=C(COCCc1cc(F)cc(F)c1)Nc1ccc(Cl)cn1 [SR12454],,0.3499 and 0.3985 and 0.4797,0.1222 and 0.1389 and 0.1212,0.07928 and 0.07742 and 0.08432,0.1048 and 0.1061 and 0.0973,35 and 40 and 48,12 and 14,8 and 7.7 and 8.4,10.4 and 10.6 and 9.7,20.2 µM,0.9451 ng/mL and 1.2144 ng/mL and 1.5871 ng/mL,0 ng/mL,inhibit IL-6 secretion significantly in a dose-dependent manner,150.094 and 139.148 and 109.409,68.7623 and 55.5227 and 41.2895,114.812 and 133.157 and 94.1462,50.3605 and 45.36 and 45.9381,0.9093 and 0.7681 and 0.624,6.788 and 6.238 and 5.4976,significantly inhibit the transcription of all NF-κB target genes tested,"concentration at 2 h ([4]; liver, read-out: Concentration in liver): 50 ng/mL"
"IKKβ-derived peptide (701–746): longer IKKβ-derived peptide (701–746) with strongest affinity to NEMO (PAKKSEELVAEAHNLCTLLENAIQDTVREQDQSFTALDWSWLQTEE; UniProt O14920 701-746, looked up, fragment)",~0.01 µM,,,,,,,,,,,,,,,,,,,,
